Data from ChEMBL document CHEMBL3588788, “Structure-activity relationship of hybrids of Cinchona alkaloids and bile acids with in vitro antiplasmodial and antitrypanosomal activities” (Eur J Med Chem, 2015).
Blank lines part the entries; values can stand above or below the molecule they belong to.

Legend:
[1] = Cytotoxicity against human WI38 cells by MTT assay; type: cell-based, WI-38; settings: Homo sapiens, WI-38; read-out: IC50
[2] = tested on: Trypanosoma brucei brucei; test: Antitrypanosomal activity against Trypanosoma brucei brucei Lister 427 bloodstream forms by microtiter plate based assay; type: functional, organism-based
[3] = tested on: Trypanosoma brucei brucei; test: Potency index, ratio of IC50 for CN to IC50 for test compound against Trypanosoma brucei brucei Lister 427 bloodstream forms by microtiter plate based assay; type: functional
Plasmodium falciparum [4] = test: Antiplasmodial activity against Plasmodium falciparum 3D7 assessed as reduction in parasite viability by parasite lactate dehydrogenase assay; type: functional, organism-based
[5] = Selectivity index, ratio of IC50 against human WI38 cells to IC50 for Plasmodium falciparum 3D7; type: toxicity, cell-based, WI-38; settings: read-out: Ratio IC50
Plasmodium falciparum [6] = test: Potency index, ratio of IC50 for CN to IC50 for test compound against Plasmodium falciparum 3D7 by parasite lactate dehydrogenase assay; type: functional
in vitro = settings: human, WI38 cells
Description: Selectivity index, ratio of IC50 against human WI38 cells to IC50 for Trypanosoma brucei brucei Lister 427 bloodstream forms

[7] = tested on: Trypanosoma brucei brucei; test: Potency index, ratio of IC50 for QN to IC50 for test compound against Trypanosoma brucei brucei Lister 427 bloodstream forms by microtiter plate based assay; type: functional
Plasmodium falciparum [8] = test: Potency index, ratio of IC50 for QN to IC50 for test compound against Plasmodium falciparum 3D7 by parasite lactate dehydrogenase assay; type: functional
[9] = tested on: Trypanosoma brucei brucei; test: Potency index, ratio of IC50 for QND to IC50 for test compound against Trypanosoma brucei brucei Lister 427 bloodstream forms by microtiter plate based assay; type: functional
Plasmodium falciparum [10] = test: Potency index, ratio of IC50 for QND to IC50 for test compound against Plasmodium falciparum 3D7 by parasite lactate dehydrogenase assay; type: functional

IC50 [2]: 510 nM
Compound: C=C[C@H]1CN2CC[C@H]1C[C@@H]2[C@@H](O)c1cc(CC[C@@H](C)[C@H]2CC[C@H]3[C@@H]4[C@H](OC(C)=O)[C@H](OC(C)=O)[C@@H]5C[C@H](OC(C)=O)CC[C@]5(C)[C@H]4CC[C@]23C)nc2ccccc12
IC50 [1]: 4170 nM | Ratio IC50 [3]: 134.6 | IC50 (Plasmodium falciparum [4]): 40.8 nM | selectivity ratio [5]: 102 | Ratio IC50 (Plasmodium falciparum [6]): 7.2 | selectivity ratio (in vitro): 8.3

IC50 [2]: 1810 nM
Compound: C=C[C@H]1CN2CC[C@H]1C[C@@H]2[C@@H](O)c1cc(CC[C@@H](C)[C@H]2CC[C@H]3[C@@H]4[C@H](O)[C@H](O)[C@@H]5C[C@H](O)CC[C@]5(C)[C@H]4CC[C@]23C)nc2ccccc12
IC50 [1]: 5680 nM | Ratio IC50 [3]: 37.6 | IC50 (Plasmodium falciparum [4]): 183 nM | selectivity ratio [5]: 31 | Ratio IC50 (Plasmodium falciparum [6]): 1.6 | selectivity ratio (in vitro): 3.1

IC50 [2]: 1100 nM
Compound: C=C[C@H]1CN2CC[C@H]1C[C@@H]2[C@@H](O)c1cc(CC[C@@H](C)[C@H]2CC[C@H]3[C@@H]4[C@H](O)C[C@@H]5C[C@H](O)CC[C@]5(C)[C@H]4C[C@H](O)[C@]23C)nc2ccccc12
IC50 [1]: 5680 nM | Ratio IC50 [3]: 61.8 | IC50 (Plasmodium falciparum [4]): 592 nM | selectivity ratio [5]: 10 | Ratio IC50 (Plasmodium falciparum [6]): 0.5 | selectivity ratio (in vitro): 5.2

IC50 [2]: 450 nM
Compound: C=C[C@H]1CN2CC[C@H]1C[C@H]2[C@H](O)c1cc(CC[C@@H](C)[C@H]2CC[C@H]3[C@@H]4[C@H](OC(C)=O)[C@H](OC(C)=O)[C@@H]5C[C@H](OC(C)=O)CC[C@]5(C)[C@H]4CC[C@]23C)nc2ccc(OC)cc12
IC50 [1]: 3760 nM | Ratio IC50 [7]: 46.8 | IC50 (Plasmodium falciparum [4]): 56 nM | selectivity ratio [5]: 67.2 | Ratio IC50 (Plasmodium falciparum [8]): 11.3 | selectivity ratio (in vitro): 8.3

IC50 [2]: 530 nM
Compound: C=C[C@H]1CN2CC[C@H]1C[C@@H]2[C@@H](O)c1cc(CC[C@@H](C)[C@H]2CC[C@H]3[C@@H]4[C@H](OC(C)=O)C[C@@H]5C[C@H](OC(C)=O)CC[C@]5(C)[C@H]4C[C@H](OC(C)=O)[C@]23C)nc2ccc(OC)cc12
IC50 [1]: 4660 nM | Ratio IC50 [9]: 48.8 | IC50 (Plasmodium falciparum [4]): 83.8 nM | selectivity ratio [5]: 56 | Ratio IC50 (Plasmodium falciparum [10]): 2.3 | selectivity ratio (in vitro): 8.7

IC50 [2]: 1470 nM
Compound: C=C[C@H]1CN2CC[C@H]1C[C@@H]2[C@@H](O)c1cc(CC[C@@H](C)[C@H]2CC[C@H]3[C@@H]4C[C@H](OC(C)=O)[C@@H]5C[C@H](OC(C)=O)CC[C@]5(C)[C@H]4CC[C@]23C)nc2ccc(OC)cc12
IC50 [1]: 4490 nM | Ratio IC50 [9]: 17.7 | IC50 (Plasmodium falciparum [4]): 155 nM | selectivity ratio [5]: 29 | Ratio IC50 (Plasmodium falciparum [10]): 1.3 | selectivity ratio (in vitro): 3.1

IC50 [2]: 560 nM
Compound: C=C[C@H]1CN2CC[C@H]1C[C@@H]2[C@@H](O)c1cc(CC[C@@H](C)[C@H]2CC[C@H]3[C@@H]4[C@H](OC(C)=O)[C@H](OC(C)=O)[C@@H]5C[C@H](OC(C)=O)CC[C@]5(C)[C@H]4CC[C@]23C)nc2ccc(OC)cc12
IC50 [1]: 3290 nM | Ratio IC50 [9]: 46.2 | IC50 (Plasmodium falciparum [4]): 73.2 nM | selectivity ratio [5]: 45 | Ratio IC50 (Plasmodium falciparum [10]): 2.7 | selectivity ratio (in vitro): 5.8

IC50 [2]: 1570 nM
Compound: C=C[C@H]1CN2CC[C@H]1C[C@H]2[C@H](O)c1cc(CC[C@@H](C)[C@H]2CC[C@H]3[C@@H]4[C@H](O)C[C@@H]5C[C@H](O)CC[C@]5(C)[C@H]4C[C@H](O)[C@]23C)nc2ccc(OC)cc12
IC50 [1]: 19300 nM | Ratio IC50 [7]: 13.5 | IC50 (Plasmodium falciparum [4]): 1820 nM | selectivity ratio [5]: 11 | Ratio IC50 (Plasmodium falciparum [8]): 0.3 | selectivity ratio (in vitro): 12.3

IC50 [2]: 650 nM
Compound: C=C[C@H]1CN2CC[C@H]1C[C@H]2[C@H](O)c1cc(CC[C@@H](C)[C@H]2CC[C@H]3[C@@H]4C[C@H](O)[C@@H]5C[C@H](O)CC[C@]5(C)[C@H]4CC[C@]23C)nc2ccc(OC)cc12
IC50 [1]: 4600 nM | Ratio IC50 [7]: 32.4 | IC50 (Plasmodium falciparum [4]): 224 nM | selectivity ratio [5]: 21 | Ratio IC50 (Plasmodium falciparum [8]): 2.8 | selectivity ratio (in vitro): 7

IC50 [2]: 640 nM
Compound: C=C[C@H]1CN2CC[C@H]1C[C@@H]2[C@@H](O)c1cc(CC[C@@H](C)[C@H]2CC[C@H]3[C@@H]4C[C@H](OC(C)=O)[C@@H]5C[C@H](OC(C)=O)CC[C@]5(C)[C@H]4CC[C@]23C)nc2ccccc12
IC50 [1]: 4280 nM | Ratio IC50 [3]: 105.7 | IC50 (Plasmodium falciparum [4]): 186 nM | selectivity ratio [5]: 23 | Ratio IC50 (Plasmodium falciparum [6]): 1.6 | selectivity ratio (in vitro): 6.6

IC50 [2]: 770 nM
Compound: C=C[C@H]1CN2CC[C@H]1C[C@@H]2[C@@H](O)c1cc(CC[C@@H](C)[C@H]2CC[C@H]3[C@@H]4[C@H](O)[C@H](O)[C@@H]5C[C@H](O)CC[C@]5(C)[C@H]4CC[C@]23C)nc2ccc(OC)cc12
IC50 [1]: 4750 nM | Ratio IC50 [9]: 33.9 | IC50 (Plasmodium falciparum [4]): 170 nM | selectivity ratio [5]: 27.9 | Ratio IC50 (Plasmodium falciparum [10]): 1.1 | selectivity ratio (in vitro): 6.2

IC50 [2]: 1490 nM
Compound: C=C[C@H]1CN2CC[C@H]1C[C@H]2[C@H](O)c1cc(CC[C@@H](C)[C@H]2CC[C@H]3[C@@H]4C[C@H](OC(C)=O)[C@@H]5C[C@H](OC(C)=O)CC[C@]5(C)[C@H]4CC[C@]23C)nc2ccc(OC)cc12
IC50 [1]: 5860 nM | Ratio IC50 [7]: 14.3 | IC50 (Plasmodium falciparum [4]): 460 nM | selectivity ratio [5]: 13 | Ratio IC50 (Plasmodium falciparum [8]): 1.4 | selectivity ratio (in vitro): 3.9

IC50 [2]: 550 nM
Compound: C=C[C@H]1CN2CC[C@H]1C[C@@H]2[C@@H](O)c1cc(CC[C@@H](C)[C@H]2CC[C@H]3[C@@H]4[C@H](OC(C)=O)C[C@@H]5C[C@H](OC(C)=O)CC[C@]5(C)[C@H]4C[C@H](OC(C)=O)[C@]23C)nc2ccccc12
IC50 [1]: 5100 nM | Ratio IC50 [3]: 123.6 | IC50 (Plasmodium falciparum [4]): 52.8 nM | selectivity ratio [5]: 97 | Ratio IC50 (Plasmodium falciparum [6]): 5.5 | selectivity ratio (in vitro): 9.3

IC50 [2]: 600 nM
Compound: C=C[C@H]1CN2CC[C@H]1C[C@@H]2[C@@H](O)c1cc(CC[C@@H](C)[C@H]2CC[C@H]3[C@@H]4CC[C@@H]5C[C@H](O)CC[C@]5(C)[C@H]4C[C@H](O)[C@]23C)nc2ccccc12
IC50 [1]: 2980 nM | Ratio IC50 [3]: 113.1 | IC50 (Plasmodium falciparum [4]): 134 nM | selectivity ratio [5]: 22 | Ratio IC50 (Plasmodium falciparum [6]): 2.2 | selectivity ratio (in vitro): 5

IC50 [2]: 480 nM
Compound: C=C[C@H]1CN2CC[C@H]1C[C@H]2[C@H](O)c1cc(CC[C@@H](C)[C@H]2CC[C@H]3[C@@H]4[C@H](OC(C)=O)C[C@@H]5C[C@H](OC(C)=O)CC[C@]5(C)[C@H]4C[C@H](OC(C)=O)[C@]23C)nc2ccc(OC)cc12
IC50 [1]: 4470 nM | Ratio IC50 [7]: 44.1 | IC50 (Plasmodium falciparum [4]): 43.5 nM | selectivity ratio [5]: 103 | Ratio IC50 (Plasmodium falciparum [8]): 14.6 | selectivity ratio (in vitro): 9.3

IC50 [2]: 690 nM
Compound: C=C[C@H]1CN2CC[C@H]1C[C@@H]2[C@@H](O)c1cc(CC[C@@H](C)[C@H]2CC[C@H]3[C@@H]4CC[C@@H]5C[C@H](OC(C)=O)CC[C@]5(C)[C@H]4C[C@H](OC(C)=O)[C@]23C)nc2ccc(OC)cc12
IC50 [1]: 5330 nM | Ratio IC50 [9]: 37.5 | IC50 (Plasmodium falciparum [4]): 195 nM | selectivity ratio [5]: 27 | Ratio IC50 (Plasmodium falciparum [10]): 1 | selectivity ratio (in vitro): 7.7

IC50 [2]: 610 nM
Compound: C=C[C@H]1CN2CC[C@H]1C[C@@H]2[C@@H](O)c1cc(CC[C@@H](C)[C@H]2CC[C@H]3[C@@H]4CC[C@@H]5C[C@H](O)CC[C@]5(C)[C@H]4C[C@H](O)[C@]23C)nc2ccc(OC)cc12
IC50 [1]: 4300 nM | Ratio IC50 [9]: 42.7 | IC50 (Plasmodium falciparum [4]): 281 nM | selectivity ratio [5]: 15 | Ratio IC50 (Plasmodium falciparum [10]): 0.7 | selectivity ratio (in vitro): 7.1

IC50 [2]: 1210 nM
Compound: C=C[C@H]1CN2CC[C@H]1C[C@@H]2[C@@H](O)c1cc(CC[C@@H](C)[C@H]2CC[C@H]3[C@@H]4[C@H](O)C[C@@H]5C[C@H](O)CC[C@]5(C)[C@H]4C[C@H](O)[C@]23C)nc2ccc(OC)cc12
IC50 [1]: 11800 nM | Ratio IC50 [9]: 21.6 | IC50 (Plasmodium falciparum [4]): 700 nM | selectivity ratio [5]: 17 | Ratio IC50 (Plasmodium falciparum [10]): 0.3 | selectivity ratio (in vitro): 9.8

IC50 [2]: 640 nM
Compound: C=C[C@H]1CN2CC[C@H]1C[C@H]2[C@H](O)c1cc(CC[C@@H](C)[C@H]2CC[C@H]3[C@@H]4CC[C@@H]5C[C@H](O)CC[C@]5(C)[C@H]4C[C@H](O)[C@]23C)nc2ccc(OC)cc12
IC50 [1]: 5200 nM | Ratio IC50 [7]: 33.3 | IC50 (Plasmodium falciparum [4]): 241 nM | selectivity ratio [5]: 22 | Ratio IC50 (Plasmodium falciparum [8]): 2.6 | selectivity ratio (in vitro): 8.2

IC50 [2]: 890 nM
Compound: C=C[C@H]1CN2CC[C@H]1C[C@@H]2[C@@H](O)c1cc(CC[C@@H](C)[C@H]2CC[C@H]3[C@@H]4C[C@H](O)[C@@H]5C[C@H](O)CC[C@]5(C)[C@H]4CC[C@]23C)nc2ccc(OC)cc12
IC50 [1]: 2200 nM | Ratio IC50 [9]: 29.2 | IC50 (Plasmodium falciparum [4]): 124 nM | selectivity ratio [5]: 18 | Ratio IC50 (Plasmodium falciparum [10]): 1.6 | selectivity ratio (in vitro): 2.5
